The values below come from patent US4808596A, “Imidazo[4,5-b]pyridine compounds and pharmaceutical compositions containing same” (Tokyo Tanabe Company, Ltd., priority 1986, dated 1989).

In one series the target is T1, (H^+ +K^+) ATPase (Sus scrofa, UniProt P19156).
T1 construct: prepared from fresh pieces of the fundus ventriculi of hog stomach; from tissue; host or cells: hog stomach, fundus ventriculi (fresh pieces), prepared by the method of Saccomani et al., J. Biol. Chem. 1976
As to the kind of experiment: Inhibitory effect on (H^+ +K^+) ATPase. It counts as biochemical, hog. Particulars: at 1 × 10^-3 M; in vitro; read-out: Degree of inhibition, Inhibitory effect on (H^+ + K^+) ATPase. The method, then: The inhibitory effect of the present compounds [I] on (H^+ +K^+) ATPase was tested by adding each test compound to a solution containing 300-500 μg, on a protein basis, of the enzyme, incubating this reaction mixture at 35°-37° C. for 5-30 minutes, and then determining the residual activity of (H^+ +K^+) ATPase present in the reaction mixture. The test compounds were dissolved in methanol or ethanol in advance and added to the reaction system in such an amount as to give a concentration of 1×10^-3 M. The (H^+ +K^+) ATPase used in this test was prepared from fresh pieces of the fundus ventriculi of hog stomach according to the method of Saccomani et al. (The Journal of Biological Chemistry, Vol. 251, No. 23, p. 7690, 1976). The residual activity of (H^+ +K^+) ATPase was determined by mixing magnesium chloride and potassium chloride with the incubated reaction mixture, adding adenosine triphosphate thereto, incubating this assay mixture 37° C. for 5-15 minutes to effect an enzymic reaction, and colorimetrically determining the liberated inorganic phosphate by use of an ammonium molybdate reagent. The initial concentrations of magnesium chloride, potassium chloride and adenosine triphosphate were adjusted to 2 mM, 20 mM and 2 mM, respectively. Colorimetric determinations were made at a wavelength of 360-400 nm. As a control experiment, the residual activity of (H^+ +K^+) ATPase was determined by repeating the above-described procedure without adding any test compound to the reaction system. In this table, the inhibitory effect is indicated by the degree of inhibition which was obtained by calculating the difference between the measured value obtained in the control experiment and the measured value resulting from the addition of each test compound and expressing this difference as a percentage of the measured value obtained in the control experiment. For purposes of comparison, the inhibitory effect of Omeprazole and Compounds α and β on (H^+ +K^+) ATPase was tested in the same manner as described above and the results thus obtained are also shown in Table 2.

A further series relates to gastric acid secretion. Briefly: Inhibitory effect on gastric acid secretion (pylorus ligation). The series is classed as in vivo, male Wistar rats. The following applies: Rattus norvegicus, po, rats; total acidity of gastric juice 4 hours after pylorus ligation. As for the experimental part:
The inhibitory effect of the present compounds [I] on gastric acid secretion was tested by using male Wistar rats, weighing about 200 g, in groups of five. To these rats which had been fasted overnight, the test compounds were orally administered in a series of appropriately selected doses ranging from 1 to 100 mg/kg. Then, the pyloric end of the stomach was ligated. After the lapse of 4 hours, the total acidity of gastric juice of each rat was measured. More specifically, the test compounds were suspended in a 0.5% aqueous solution of carboxymethyl cellulose and administered to the rats 30 minutes before ligation. Gastric juice was collected by sacrificing and laparotomizing each rat. The total acidity of gastric juice was determined by titrating the gastric juice with a 0.1 N aqueous solution of sodium hydroxide until a pH of 7.0 was reached. As a control experiment, the total acidity of gastric juice of an untreated group was determined in the same manner as described above. The inhibitory effect of the test compounds on gastric acid secretion was evaluated on the basis of the dose (in mg/kg) required to inhibit gastric acid secretion, i.e. the total acidity of gastric juice, by 50% (hereinafter referred to as ED50). The ED50 value of each test compound was determined by calculating the difference in total acidity between the untreated group and each treated group, dividing the difference by the total acidity of the untreated group to obtain the degree of inhibition, and constructing a dose-response curve on the basis of the data thus obtained. For purposes of comparison, the ED50 values of Omeprazole and Compounds α and β were determined in the same manner as described above and are also shown in Table 3.

The next series in a line: physchem. The series is classed as physicochemical. Particulars: solid. As for the experimental part:
The storage stability of the present compounds [I] was tested by allowing each test compound to stand under severe conditions (i.e., a temperature of 60° C. and a relative humidity of 75%) for 8 days and then determining its percentage of residue according to a thin-layer densitometric method (Bunseki Kagaku, Vol. 23, No. 9, p. 1016, 1974). More specifically, upon completion of the severe treatment, 100 μg of each test compound was applied to a thin-layer plate and this plate was developed with a chloroform-ethanol mixture (volume ratio 10:1). The thin-layer plate used for this purpose was a TLC Plate Aluminum Oxide 60F254 (manufactured by Merck Co.; 0.25 mm in thickness and 20 cm×20 cm in size), and it was developed over a distance of 15 cm. Then, using a Shimazu Two-wavelength Chromatoscanner CS-910 (manufactured by Shimazu Seisakusho), the resulting spot was analyzed at a wavelength of 300-315 nm.
For purposes of comparison, the percentages of residue of Omeprazole (at a measuring wavelength of 300 nm) and Compounds α and β (at a measuring wavelength of 310 nm) were determined in the same manner as described above and are also shown in Table 1.

Structures are written as SMILES. Where two headings read alike, the source gives them in different places.

T1 sequence (P19156 2-1034 limits assumed): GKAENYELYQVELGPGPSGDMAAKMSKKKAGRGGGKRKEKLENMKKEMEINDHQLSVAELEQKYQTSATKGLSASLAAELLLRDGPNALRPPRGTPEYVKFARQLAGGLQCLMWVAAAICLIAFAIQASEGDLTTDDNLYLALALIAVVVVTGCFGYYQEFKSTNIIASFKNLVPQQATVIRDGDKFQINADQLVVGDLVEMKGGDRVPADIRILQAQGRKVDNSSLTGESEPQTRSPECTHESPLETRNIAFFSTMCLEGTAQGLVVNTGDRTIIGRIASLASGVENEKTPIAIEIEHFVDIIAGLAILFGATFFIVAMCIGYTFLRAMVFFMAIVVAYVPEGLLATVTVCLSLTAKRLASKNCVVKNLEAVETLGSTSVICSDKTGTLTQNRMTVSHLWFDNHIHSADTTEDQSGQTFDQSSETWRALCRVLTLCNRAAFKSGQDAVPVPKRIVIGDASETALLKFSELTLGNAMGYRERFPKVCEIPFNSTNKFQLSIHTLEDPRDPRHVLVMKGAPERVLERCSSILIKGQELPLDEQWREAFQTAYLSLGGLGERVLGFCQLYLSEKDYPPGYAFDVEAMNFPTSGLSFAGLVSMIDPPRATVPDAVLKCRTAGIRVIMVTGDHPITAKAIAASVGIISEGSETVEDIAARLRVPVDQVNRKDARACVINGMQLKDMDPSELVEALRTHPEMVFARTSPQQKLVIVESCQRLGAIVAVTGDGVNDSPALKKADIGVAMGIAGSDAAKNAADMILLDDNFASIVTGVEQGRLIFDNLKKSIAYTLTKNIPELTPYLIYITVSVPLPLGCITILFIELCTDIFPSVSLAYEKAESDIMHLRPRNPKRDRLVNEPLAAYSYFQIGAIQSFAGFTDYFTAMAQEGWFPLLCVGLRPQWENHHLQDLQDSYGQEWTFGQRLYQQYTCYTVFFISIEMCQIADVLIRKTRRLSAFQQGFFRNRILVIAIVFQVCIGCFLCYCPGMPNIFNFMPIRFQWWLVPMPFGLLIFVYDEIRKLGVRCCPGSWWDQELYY
T1 sequence (P18434 whole entry partner): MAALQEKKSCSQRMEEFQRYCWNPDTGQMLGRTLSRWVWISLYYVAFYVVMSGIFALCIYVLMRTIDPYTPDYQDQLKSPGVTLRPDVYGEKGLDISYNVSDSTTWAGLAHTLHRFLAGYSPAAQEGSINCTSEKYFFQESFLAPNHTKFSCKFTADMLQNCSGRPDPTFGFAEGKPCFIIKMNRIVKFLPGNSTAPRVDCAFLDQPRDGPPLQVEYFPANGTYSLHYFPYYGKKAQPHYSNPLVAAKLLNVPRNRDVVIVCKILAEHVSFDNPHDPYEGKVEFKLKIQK

Take `COc1ccc2[nH]c([S+]([O-])Cc3cc(OC)c(C)cn3)nc2n1` (stereo not drawn) [Example 4, 2-[2-(4-Methoxy-5-methyl)pyridylmethylsulfinyl]-5-methoxyimidazo[4,5-b]pyridine]: the inhibition at 1000 µM on (H^+ +K^+) ATPase was 100%. In addition, the ED50 in the series on gastric acid secretion amounted to 15 mg/kg. The remaining at 192 h in “physchem” (75% rh) stood at 98%.

Regarding `Cc1cnc(C[S+]([O-])c2nc3nc(OC(C)C)ccc3[nH]2)c(C)c1` (stereo not drawn) [Example 10, 2-[2-(3,5-Dimethyl)pyridylmethylsulfinyl]-5-isopropyloxyimidazo[4,5-b]pyridine], the inhibition at 1000 µM at (H^+ +K^+) ATPase came to 90%. This compound returned an ED50 in the series with gastric acid secretion of 19 mg/kg. In addition, the remaining at 192 h in “physchem” (75% rh) was found to be 92%.

As for `Cc1cnc(C[S+]([O-])c2nc3nc(OCCC(C)C)ccc3[nH]2)c(C)c1` (stereo not drawn) [Example 34, 2-[2-(3,5-Dimethyl)pyridylmethylsulfinyl]-5-(3-methylbutyloxy)imidazo[4,5-b]pyridine], the inhibition at 1000 µM on (H^+ +K^+) ATPase stood at 98.5%. The same compound gave an ED50 with gastric acid secretion of 14 mg/kg. For the same compound, the remaining at 192 h in the series “physchem” (75% rh) was 76%.

For `COc1ccnc(C[S+]([O-])c2nc3nc(OCC4CC4)ccc3[nH]2)c1` (stereo not drawn) [Example 25, 2-[2-(4-Methoxy)pyridylmethylsulfinyl]-5-cyclopropylmethyloxyimidazo[4,5-b]pyridine], the inhibition at 1000 µM at (H^+ +K^+) ATPase turned out to be 92.9%. The same compound showed an ED50 in the series with gastric acid secretion of 18 mg/kg. Further, the remaining at 192 h in “physchem” (75% rh) was 51%.

Regarding `COc1cc(C[S+]([O-])c2nc3nc(OCC(C)C)ccc3[nH]2)ncc1C` (stereo not drawn) [Example 21, 2-[2-(4-Methoxy-5-methyl)pyridylmethylsulfinyl]-5-isobutyloxyimidazo[4,5-b]pyridine], at (H^+ +K^+) ATPase, the inhibition at 1000 µM stood at 97.4%. For the same compound, in the series with gastric acid secretion, it took a dose of 13 mg/kg to reach the 50% effect level (ED50). This compound yielded a remaining at 192 h in the series “physchem” (75% rh) of 69%.

In the case of `COc1ccc2[nH]c([S+]([O-])Cc3ncc(C)c(OC)c3C)nc2n1` (stereo not drawn) [Example 2, 2-[2-(3,5-Dimethyl-4-methoxy)pyridylmethylsulfinyl]-5-methoxyimidazo[4,5-b]pyridine], the inhibition at 1000 µM on (H^+ +K^+) ATPase is 96.6%. The compound also yielded an ED50 in the series on gastric acid secretion of 18 mg/kg. The remaining at 192 h in “physchem” (75% rh) came to 77%.

As for `COc1ccnc(C[S+]([O-])c2nc3nc(OCC(C)C)ccc3[nH]2)c1` (stereo not drawn) [Example 22, 2-[2-(4-Methoxy)pyridylmethylsulfinyl]-5-isobutyloxyimidazo[4,5-b]pyridine], at (H^+ +K^+) ATPase, the inhibition at 1000 µM came out at 94.6%. Further, the 50% effective dose (ED50) in the series on gastric acid secretion amounted to 15 mg/kg. Further, the remaining at 192 h in “physchem” (75% rh) was determined as 57%.

In the case of `Cc1ccnc(C[S+]([O-])c2nc3nc(OCC(F)(F)C(F)(F)C(F)(F)F)ccc3[nH]2)c1` (stereo not drawn) [Example 30, 2-[2-(4-Methyl)pyridylmethylsulfinyl]-5-(2,2,3,3,4,4,4-heptafluorobutyloxy)imidazo[4,5-b]pyridine], the inhibition at 1000 µM on (H^+ +K^+) ATPase amounted to 92.1%. Also, the ED50 in the series on gastric acid secretion came to 19 mg/kg. Further, the remaining at 192 h in “physchem” (after treatment at 60° C. and 75% RH for 8 days, read-out: Storage stability, Percentage of residue) worked out at 73%.

Turning to `CCCCOc1ccc2[nH]c([S+]([O-])Cc3ncc(C)c(C)c3C)nc2n1` (stereo not drawn) [Example 12, 2-[2-(3,4,5-Trimethyl)pyridylmethylsulfinyl]-5-n-butyloxyimidazo[4,5-b]pyridine], at (H^+ +K^+) ATPase, the inhibition at 1000 µM was determined as 98.5%. It took a dose of 21 mg/kg to reach the 50% effect level in the series with gastric acid secretion (ED50). Further, in the series “physchem” (75% rh), the remaining at 192 h is 76%.

`COc1ccnc(C[S+]([O-])c2nc3nc(OC(C)C)ccc3[nH]2)c1` (stereo not drawn) [Example 17, 2-[2-(4-Methoxy)pyridylmethylsulfinyl]-5-isopropyloxyimidazo[4,5-b]pyridine]: the inhibition at 1000 µM on (H^+ +K^+) ATPase was found to be 93.7%. The 50% effect level in the series on gastric acid secretion (ED50) was put at a dose of 17 mg/kg. Also, the remaining at 192 h in the series “physchem” (75% rh) stood at 75%.

Turning to `CCOc1ccc2[nH]c([S+]([O-])Cc3ncc(C)cc3C)nc2n1` (stereo not drawn) [Example 14, 2-[2-(3,5-Dimethyl)pyridylmethylsulfinyl]-5-ethoxyimidazo[4,5-b]pyridine], at (H^+ +K^+) ATPase, the inhibition at 1000 µM came out at 100%. This compound also returned an ED50 in the series on gastric acid secretion of 15 mg/kg. In the series “physchem” (75% rh), this compound registered a remaining at 192 h of 93%.

As for `COc1ccc2[nH]c([S+]([O-])Cc3ncc(C)c(C)c3C)nc2n1` (stereo not drawn) [Example 3, 2-[2-(3,4,5-Trimethyl)pyridylmethylsulfinyl]-5-methoxyimidazo[4,5-b]pyridine], the inhibition at 1000 µM at (H^+ +K^+) ATPase was found to be 100%. The compound also had an ED50 with gastric acid secretion of 9 mg/kg. In the series “physchem” (75% rh), the remaining at 192 h was 99%.

As for `COc1c(C)cnc(C[S+]([O-])c2nc3nc(OC(C)C)ccc3[nH]2)c1C` (stereo not drawn) [Example 15, 2-[2-(3,5-Dimethyl-4-methoxy)pyridylmethylsulfinyl]-5-isopropyloxyimidazo[4,5-b]pyridine], the inhibition at 1000 µM on (H^+ +K^+) ATPase was found to be 98.5%. The same compound showed an ED50 with gastric acid secretion of 13 mg/kg. This compound also registered a remaining at 192 h in the series “physchem” (75% rh) of 87%.

As to `COc1c(C)cnc(C[S+]([O-])c2nc3ncc(OCCCC4CCCC4)cc3[nH]2)c1C` (stereo not drawn) [Example 36, 2-[2-(3,5-Dimethyl-4-methoxy)pyridylmethylsulfinyl]-6-(3-cyclopentylpropyloxy)imidazo[4,5-b]pyridine], the inhibition at 1000 µM at (H^+ +K^+) ATPase amounted to 93%. In the series on gastric acid secretion, this compound had an ED50 of 19 mg/kg. Also, the remaining at 192 h in the series “physchem” (75% rh) worked out at 68%.

As to `COc1c(C)cnc(C[S+]([O-])c2nc3nc(OCC(C)C)ccc3[nH]2)c1C` (stereo not drawn) [Example 20, 2-[2-(3,5-Dimethyl-4-methoxy)pyridylmethylsulfinyl]-5-isobutyloxyimidazo[4,5-b]pyridine], the inhibition at 1000 µM on (H^+ +K^+) ATPase worked out at 100%. In the series with gastric acid secretion, this compound had an ED50 of 10 mg/kg. In the series “physchem” (75% rh), the remaining at 192 h came out at 72%.

On to `Cc1cnc(C[S+]([O-])c2nc3nc(OCC4CC4)ccc3[nH]2)c(C)c1` (stereo not drawn) [Example 23, 2-[2-(3,5-Dimethyl)pyridylmethylsulfinyl]-5-cyclopropylmethyloxyimidazo[4,5-b]pyridine], for which the inhibition at 1000 µM at (H^+ +K^+) ATPase is 100%. This compound also yielded an ED50 in the series with gastric acid secretion of 12 mg/kg. This compound also showed a remaining at 192 h in the series “physchem” (75% rh) of 95%.

Regarding `COc1cc(C[S+]([O-])c2nc3nc(OC(C)C)ccc3[nH]2)ncc1C` (stereo not drawn) [Example 16, 2-[2-(4-Methoxy-5-methyl)pyridylmethylsulfinyl]-5-isopropyloxyimidazo[4,5-b]pyridine], the inhibition at 1000 µM at (H^+ +K^+) ATPase amounted to 96.1%. The compound further displayed an ED50 with gastric acid secretion of 16 mg/kg. The remaining at 192 h in the series “physchem” (75% rh) was determined as 90%.

As to `CCCOc1ccc2[nH]c([S+]([O-])Cc3ncc(C)cc3C)nc2n1` (stereo not drawn) [Example 18, 2-[2-(3,5-Dimethyl)pyridylmethylsulfinyl]-5-n-propyloxyimidazo[4,5-b]pyridine], the inhibition at 1000 µM on (H^+ +K^+) ATPase stood at 92.3%. For the same compound, in the series on gastric acid secretion, the median effective dose (ED50) came to 19 mg/kg. Also, the remaining at 192 h in “physchem” (75% rh) was 85%.

As for `COc1cc(C[S+]([O-])c2nc3nccc(OC)c3[nH]2)ncc1C` (stereo not drawn) [Example 7, 2-[2-(4-Methoxy-5-methyl)pyridylmethylsulfinyl]-7-methoxyimidazo[4,5-b]pyridine], the inhibition at 1000 µM on (H^+ +K^+) ATPase came out at 98.8%. For the same compound, the ED50 in the series with gastric acid secretion came out at 22 mg/kg. The remaining at 192 h in the series “physchem” (75% rh) is 53%.

The inhibition is the share of the control response that was lost under treatment. A word on the ED50: it is the dose at which the effect has come halfway, by size or by number of responders. A low value points to an effect at a small dose.
